Like-named read-outs stand apart in the source and are kept apart here.
Legend:
[1] = biological target: T1, TxtE (Streptomyces scabiei, UniProt C9ZDC6); conditions: read-out: previously reported Kd; TxtE with L-tryptophan; cited from earlier work
[2] = biological target: T1, TxtE; assay: biochemical; format: binding, Streptomyces scabies
[3] = biological target: T1, TxtE; format: binding, Streptomyces scabies; conditions: TxtE in E. coli cell lysate 1.9 – 2.8 μM, substrate 250–500 μM, 15 min, pH 8

N[C@@H](Cc1c[nH]c2ccccc12)C(=O)O [Substrate 1, L-tryptophan]
Kd [1]: 44 to 60 µM | Kd [2]: 39 µM | Spectral Shift [3]: type I

Reference: article PMC4260628 (Chembiochem : a European journal of chemical biology, 2014)
